The values below come from article PMC7017409 (ACS Omega, 2020).

The term IC50 denotes the concentration that inhibits the measured activity by half.

This assay deals with T1, electric eel AChE (eeAChE) (Electrophorus electricus, UniProt O42275).
T1 construct: purchased type VI-S
Nature of the assay: biochemical. It is filed as biochemical. The method, then: A UV–vis spectrophotometry-based assay was conducted to calculate the IC50 values for the diastereomeric mixtures (Table 6), according to Ellman et al.[37] and Mohamed et al.[38]
All of these solutions were prepared freshly directly before the assay was run. In 96-well plates, 160 μL of the 1.5 mM DTNB solution was first added, followed by 10 μL of different concentrations of test compounds. Then, a 0.22 U/mL enzyme solution was added (50 μL) and incubated at room temperature for 7 min. The background absorbance was measured at a wavelength of 412 nm on a POLARstar OPTIMA (BMG Labtech) microplate reader. The addition of 30 μL of the 15 mM ATCI solution initiated the enzymatic reaction, and the time elapsed between the beginning of the pipetting and the first measurement (t = 0) was noted and kept consistently at 2 min. Further kinetic measurements were made at different time intervals (t = 1, 2, 3, 4, 5 min) after a short episode of shaking (10 s). Each experiment was carried out in triplicate. Various control incubations containing 10 μL of methanol were run alongside the test compounds on each plate.

T1 sequence (O42275 24-633): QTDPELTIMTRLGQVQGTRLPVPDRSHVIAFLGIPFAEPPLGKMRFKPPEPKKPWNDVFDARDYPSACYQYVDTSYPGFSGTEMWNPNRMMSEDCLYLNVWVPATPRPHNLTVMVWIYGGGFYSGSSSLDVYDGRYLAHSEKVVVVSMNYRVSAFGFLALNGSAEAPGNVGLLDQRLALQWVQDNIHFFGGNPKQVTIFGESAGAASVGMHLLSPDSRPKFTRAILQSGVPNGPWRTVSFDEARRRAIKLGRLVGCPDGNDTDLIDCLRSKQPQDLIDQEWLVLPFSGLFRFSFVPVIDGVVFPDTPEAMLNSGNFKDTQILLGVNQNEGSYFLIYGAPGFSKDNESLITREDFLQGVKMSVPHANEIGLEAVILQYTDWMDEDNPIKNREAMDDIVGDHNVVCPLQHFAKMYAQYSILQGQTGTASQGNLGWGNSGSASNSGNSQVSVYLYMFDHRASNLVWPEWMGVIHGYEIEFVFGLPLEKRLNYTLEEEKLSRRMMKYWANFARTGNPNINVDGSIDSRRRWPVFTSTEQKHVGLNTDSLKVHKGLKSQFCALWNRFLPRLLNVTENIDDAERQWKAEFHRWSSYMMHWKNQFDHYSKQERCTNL

Consider `COc1cc2c(cc1OC)C(=O)C(C[C@H]1CCN([C@@H](C)c3ccccc3)[C@H](C)C1)C2` (stereo partly drawn) [2R,4S-4+4’c, R-5,6-Dimethoxy-2-((2R,4S-2-methyl-1-(S-1-phenylethyl)piperidin-4-yl)-methyl)-2,3-dihydro-1H-inden-1-one (4c) and S-5,6-Dimethoxy-2-((2R,4S-2-methyl-1-(S-1-phenylethyl)piperidin-4-yl)-methyl)-2,3-dihydro-1H-inden-1-one (4′c)], for which half-maximal inhibition (IC50) required 24.3 ± 1.32 µM.

`COc1cc2c(cc1OC)C(=O)C(CC1CCN([C@@H](C)c3ccccc3)CC1)C2` (stereo partly shown) [19+19’, R-5,6-Dimethoxy-2-((1-(S-1-phenylethyl)piperidin-4-yl)methyl)-2,3-dihydro-1H-inden-1-one (19) and S-5,6-Dimethoxy-2-((1-(S-1-phenylethyl)piperidin-4-yl)methyl)-2,3-dihydro-1H-inden-1-one (19′)] came in with a 50% inhibitory concentration (IC50) of 1.83 ± 0.04 µM. Further, the “times less active than donepezil 1 (IC50 ratio)” value (eeAChE IC50 compared with donepezil 1) is on record as “approximately 27 times”.

The compound `COc1cc2c(cc1OC)C(=O)C(C[C@H]1CCN([C@@H](C)c3ccccc3)[C@@H](C)C1)C2` (stereo partly drawn) [2S,4S-4+4’a, R-5,6-Dimethoxy-2-((2S,4S-2-methyl-1-(S-1-phenylethyl)piperidin-4-yl)-methyl)-2,3-dihydro-1H-inden-1-one (4a) and y-5,6-Dimethoxy-2-((2S,4S-2-methyl-1-(S-1-phenylethyl)piperidin-4-yl)-methyl)-2,3-dihydro-1H-inden-1-one (4′a)] had an IC50 of 1.01 ± 0.03 µM. Further, where the note is “eeAChE IC50, syn versus anti”, the “times more active than the 2R,4S-anti-substituted analogues 4 + 4′c (IC50 ratio)” value is “approximately 24 times”.

Compound `COc1cc2c(cc1OC)C(=O)C(C[C@@H]1CCN([C@@H](C)c3ccccc3)[C@@H](C)C1)C2` (stereo partly drawn) [2S,4R-4+4’b, R-5,6-Dimethoxy-2-((2S,4R-2-methyl-1-(S-1-phenylethyl)piperidin-4-yl)-methyl)-2,3-dihydro-1H-inden-1-one (4b) and S-5,6-Dimethoxy-2-((2S,4R-2-methyl-1-(S-1-phenylethyl)piperidin-4-yl)-methyl)-2,3-dihydro-1H-inden-1-one (4′b)] displayed a 50% inhibitory concentration (IC50) of 8.82 ± 0.21 µM.

In the case of `COc1cc2c(cc1OC)C(=O)C(C[C@@H]1CCN([C@@H](C)c3ccccc3)[C@H](C)C1)C2` (stereo partly drawn) [2R,4R-4+4’d, R-5,6-Dimethoxy-2-((2R,4R-2-methyl-1-(S-1-phenylethyl)piperidin-4-yl)-methyl)-2,3-dihydro-1H-inden-1-one (4d) and S-5,6-Dimethoxy-2-((2R,4R-2-methyl-1-(S-1-phenylethyl)piperidin-4-yl)-methyl)-2,3-dihydro-1H-inden-1-one (4′d)], inhibition was half-maximal at 13.1 ± 0.47 µM (IC50).
